Laboratory results from ChEMBL document CHEMBL1201862, “PubChem BioAssay data set” (2004).
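Each compound was tested at five concentrations against cells in 96-well plates for 48 hours. Here, GI50 denotes the concentration required for 50% inhibition of growth.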 Calls of active or inactive are those of the source. Rule as the data show it: active = GI50 up to about 1.1 µM and inactive = higher.

Legend:
Assay in all cases: DTP human tumour cell line panel, 48 h
ACHN = test system: ACHN
EKVX = test system: EKVX
SW-620 = test system: SW-620
HCT-116 = test system: HCT-116
SF-268 = test system: SF-268
HL-60 = test system: HL-60
Malme-3M = test system: Malme-3M
OVCAR-4 = test system: OVCAR-4
IGROV-1 = test system: IGROV-1
HCT-15 = test system: HCT-15
UO-31 = test system: UO-31
SF-539 = test system: SF-539
OVCAR-8 = test system: OVCAR-8
SK-OV-3 = test system: SK-OV-3
M14 = test system: M14
SF-295 = test system: SF-295
RPMI-8226 = test system: RPMI-8226
CCRF-CEM = test system: CCRF-CEM
KM12 = test system: KM12
HT-29 = test system: HT-29

Row | SMILES | GI50 (ACHN) | GI50 (EKVX) | GI50 (SW-620) | GI50 (HCT-116) | GI50 (SF-268) | GI50 (HL-60) | GI50 (Malme-3M) | GI50 (OVCAR-4) | GI50 (IGROV-1) | GI50 (HCT-15) [µM] | GI50 (UO-31) | GI50 (SF-539) | GI50 (OVCAR-8) | GI50 (SK-OV-3) | GI50 (M14) | GI50 (SF-295) | GI50 (RPMI-8226) | GI50 (CCRF-CEM) | GI50 (KM12) | GI50 (HT-29)
1 | CCOC(=O)CCC(C(=O)OCC)n1nc2ccc(Nc3c(C)[n+]([O-])c4cc(Cl)ccc4[n+]3[O-])cc2n1 (stereo unspecified) | > 100 µM (inactive) | 32.2 µM (inactive) | > 100 µM (inactive) | 30.1 µM (inactive) | 39.1 µM (inactive) | 96.8 µM (inactive) | > 100 µM (inactive) | 65.8 µM (inactive) | > 100 µM (inactive) | 88.1 | 81.8 µM (inactive) | > 100 µM (inactive) | > 100 µM (inactive) | > 100 µM (inactive) | > 100 µM (inactive) | 82.4 µM (inactive) | 19.5 µM (inactive) | 49.3 µM (inactive) | > 100 µM (inactive) | 64.9 µM (inactive)
2 | COc1ccc(C(=O)NC2=C(Cl)C(=O)c3ccccc3C2=O)cc1 | 0.472 µM (active) | 5.3 µM (inactive) | 1.1 µM (active) | 0.406 µM (active) | 4.69 µM (inactive) | 0.336 µM (active) | 1.48 µM (inactive) | 2.17 µM (inactive) | 2.52 µM (inactive) | 0.482 | 1.9 µM (inactive) | 1.66 µM (inactive) | 3.32 µM (inactive) | 2.23 µM (inactive) | 1.05 µM (active) | 3.85 µM (inactive) | 0.579 µM (active) | 3.23 µM (inactive) | 1.07 µM (active) | 4.41 µM (inactive)
3 | COC(=O)C1=C(c2cc(OC)c(OC)c(OC)c2)O[C@H](c2ccc3c(c2)OCO3)[C@H]1COC(C)=O | 26.4 µM (inactive) | 41.6 µM (inactive) | 25.2 µM (inactive) | – | – | 15.6 µM (inactive) | 34.4 µM (inactive) | 29 µM (inactive) | 22.2 µM (inactive) | 22.1 | 20.9 µM (inactive) | 26.3 µM (inactive) | 39.3 µM (inactive) | 23.1 µM (inactive) | 15.3 µM (inactive) | 6.85 µM (inactive) | 24.2 µM (inactive) | 40.2 µM (inactive) | 20.2 µM (inactive) | 18.6 µM (inactive)
4 | CCOC(=O)C(CCCNC(=O)OC(C)(C)C)N(Cc1ccc(OC)cc1OC)C(=O)CC(=O)CP(=O)(OCC)OCC (stereo unspecified) | > 100 µM (inactive) | > 100 µM (inactive) | – | > 100 µM (inactive) | > 100 µM (inactive) | 97.7 µM (inactive) | > 100 µM (inactive) | > 100 µM (inactive) | > 100 µM (inactive) | – | > 100 µM (inactive) | > 100 µM (inactive) | > 100 µM (inactive) | > 100 µM (inactive) | > 100 µM (inactive) | > 100 µM (inactive) | > 100 µM (inactive) | > 100 µM (inactive) | > 100 µM (inactive) | > 100 µM (inactive)
5 | CC1=C2C3=C(C)C(=O)C(C)(C)CC[C@@]3(C)[C@]2(C)CCC(C)(C)C1=O | > 100 µM (inactive) | > 100 µM (inactive) | > 100 µM (inactive) | > 100 µM (inactive) | > 100 µM (inactive) | > 100 µM (inactive) | > 100 µM (inactive) | > 100 µM (inactive) | > 100 µM (inactive) | > 100 | > 100 µM (inactive) | > 100 µM (inactive) | > 100 µM (inactive) | > 100 µM (inactive) | > 100 µM (inactive) | > 100 µM (inactive) | > 100 µM (inactive) | > 100 µM (inactive) | > 100 µM (inactive) | > 100 µM (inactive)
6 | CCC(=O)Nc1ccc(NS(=O)(=O)c2ccc(Cl)cc2)cc1 | > 100 µM (inactive) | 39.8 µM (inactive) | > 100 µM (inactive) | > 100 µM (inactive) | > 100 µM (inactive) | 28.2 µM (inactive) | > 100 µM (inactive) | 53.6 µM (inactive) | > 100 µM (inactive) | > 100 | > 100 µM (inactive) | > 100 µM (inactive) | > 100 µM (inactive) | > 100 µM (inactive) | > 100 µM (inactive) | 45.4 µM (inactive) | 17.7 µM (inactive) | > 100 µM (inactive) | > 100 µM (inactive) | > 100 µM (inactive)
7 | CC(=O)Nn1c(Cc2ccc(Cl)cc2)nn(C)c1=O | > 100 µM (inactive) | > 100 µM (inactive) | > 100 µM (inactive) | > 100 µM (inactive) | > 100 µM (inactive) | > 100 µM (inactive) | > 100 µM (inactive) | > 100 µM (inactive) | > 100 µM (inactive) | > 100 | > 100 µM (inactive) | > 100 µM (inactive) | > 100 µM (inactive) | > 100 µM (inactive) | > 100 µM (inactive) | > 100 µM (inactive) | > 100 µM (inactive) | > 100 µM (inactive) | > 100 µM (inactive) | > 100 µM (inactive)
